Reference: ChEMBL document CHEMBL1131475, “Discovery of ritonavir, a potent inhibitor of HIV protease with high oral bioavailability and clinical efficacy” (J Med Chem, 1998)

Columns and labels:
[1] = Oral bioavailability in rat; format: ADME, organism-based; conditions: in vivo
in vivo [2] = conditions: rat, plasma, po
in vivo [3] = conditions: rat, plasma, po, 10 mg/kg
in vivo [4] = conditions: rat, plasma, po; remark: listed apart in the source
in vivo [5] = conditions: rat, plasma, iv

bioavailability [1]	AUC (in vivo [2])	Cmax (in vivo [3])	Tmax (in vivo [4])	half-life (in vivo [5])	Structure (SMILES)
7.1%	190 ng·h/mL	630 nM	6 min	57.6 min	CC(C)c1nc(CN(C)C(=O)NCCC(=O)N[C@@H](Cc2ccccc2)C[C@H](O)[C@H](Cc2ccccc2)NC(=O)OCc2cncs2)cs1
76%	12000 ng·h/mL	5190 nM	108 min	36.6 min	CC(NC(=O)N(Cc1csc(C(C)C)n1)C1CC1)C(=O)N[C@@H](Cc1ccccc1)C[C@H](O)[C@H](Cc1ccccc1)NC(=O)OCc1cncs1 (stereo not given in full)
0.8%	30 ng·h/mL	100 nM	12 min	37.2 min	CC(C)c1ncc(COC(=O)NC(C(=O)N[C@@H](Cc2ccccc2)[C@@H](O)C[C@H](Cc2ccccc2)NC(=O)OCc2cccnc2)C(C)C)s1 (stereo not given in full)
24%	950 ng·h/mL	1650 nM	15 min	45 min	CC(C)c1nc(CN(C)C(=O)NC(C(=O)N[C@@H](Cc2ccccc2)[C@@H](O)C[C@H](Cc2ccccc2)NC(=O)OCc2cccnc2)C(C)C)cs1 (stereo not given in full)
5.3%	230 ng·h/mL	380 nM	19.8 min	17.4 min	CC(C)C(NC(=O)N(C)Cc1csc(C(C)(C)C)n1)C(=O)N[C@@H](Cc1ccccc1)C[C@H](O)[C@H](Cc1ccccc1)NC(=O)OCc1cccnc1 (stereo not given in full)
9.2%	490 ng·h/mL	340 nM	16.8 min	73.8 min	CCc1ncc(COC(=O)NC(C(=O)N[C@@H](Cc2ccccc2)[C@@H](O)C[C@H](Cc2ccccc2)NC(=O)OCc2cccnc2)C(C)C)s1 (stereo not given in full)
2.8%	70 ng·h/mL	350 nM	12 min	10.8 min	Cc1cnc(COC(=O)NC(C(=O)N[C@@H](Cc2ccccc2)[C@@H](O)C[C@H](Cc2ccccc2)NC(=O)OCc2cccnc2)C(C)C)cn1 (stereo not given in full)
57%	8910 ng·h/mL	8010 nM	19.8 min	120 min	CCc1nc(CN(C)C(=O)NC(C(=O)N[C@@H](Cc2ccccc2)C[C@H](O)[C@H](Cc2ccccc2)NC(=O)OCc2cncs2)C(C)C)co1 (stereo not given in full)
35%	2050 ng·h/mL	3330 nM	10.8 min	32.4 min	CC(C)C(NC(=O)OCc1nccs1)C(=O)N[C@@H](Cc1ccccc1)[C@@H](O)C[C@H](Cc1ccccc1)NC(=O)OCc1cccnc1 (stereo not given in full)
6.4%	270 ng·h/mL	780 nM	9 min	39 min	Cc1ccc(COC(=O)NC(C(=O)N[C@@H](Cc2ccccc2)C[C@H](O)[C@H](Cc2ccccc2)NC(=O)OCc2cccnc2)C(C)C)cn1 (stereo not given in full)
7.7%	270 ng·h/mL	370 nM	12 min	35.4 min	CC(C)c1nc(CN(C)C(=O)NC(C(=O)N[C@@H](Cc2ccccc2)C[C@H](O)[C@H](Cc2ccccc2)NC(=O)OCc2ccno2)C(C)C)cs1 (stereo not given in full)
1.1%	30 ng·h/mL	90 nM	9 min	21 min	CC(C)C(NC(=O)OCc1csc(N2CCOCC2)n1)C(=O)N[C@@H](Cc1ccccc1)[C@@H](O)C[C@H](Cc1ccccc1)NC(=O)OCc1cccnc1 (stereo not given in full)
1.6%	50 ng·h/mL	210 nM	6 min	14.4 min	CC(C)c1nc(COC(=O)NC(C(=O)N[C@@H](Cc2ccccc2)C[C@H](O)[C@H](Cc2ccccc2)NC(=O)OCc2cccnc2)C(C)C)cs1 (stereo not given in full)
60%	6290 ng·h/mL	2480 nM	72 min	24 min	CC(C)C(NC(=O)N(C)Cc1csc(C2CCC2)n1)C(=O)N[C@@H](Cc1ccccc1)C[C@H](O)[C@H](Cc1ccccc1)NC(=O)OCc1cncs1 (stereo not given in full)
1.5%	70 ng·h/mL	300 nM	6 min	71.4 min	COc1cncc(COC(=O)NC(C(=O)N[C@@H](Cc2ccccc2)[C@@H](O)C[C@H](Cc2ccccc2)NC(=O)OCc2cccnc2)C(C)C)c1 (stereo not given in full)
20%	870 ng·h/mL	1460 nM	12 min	44.4 min	CCc1nc(CN(C)C(=O)NC(C(=O)N[C@@H](Cc2ccccc2)[C@@H](O)C[C@H](Cc2ccccc2)NC(=O)OCc2cccnc2)C(C)C)cs1 (stereo not given in full)
5.7%	120 ng·h/mL	350 nM	12 min	18 min	Cc1ncc(COC(=O)NC(C(=O)N[C@@H](Cc2ccccc2)[C@@H](O)C[C@H](Cc2ccccc2)NC(=O)OCc2cccnc2)C(C)C)nc1C (stereo not given in full)
31%	1600 ng·h/mL	1680 nM	30 min	54 min	CC(NC(=O)N(C)Cc1csc(C(C)C)n1)C(=O)N[C@@H](Cc1ccccc1)C[C@H](O)[C@H](Cc1ccccc1)NC(=O)OCc1cncs1 (stereo not given in full)
0.5%	10 ng·h/mL	160 nM	6 min	11.4 min	CCc1ncc(COC(=O)NC(C(=O)N[C@@H](Cc2ccccc2)C[C@H](O)[C@H](Cc2ccccc2)NC(=O)OCc2cccnc2)C(C)C)s1 (stereo not given in full)

bioavailability [1]	AUC (in vivo [2])	Cmax (in vivo [3])	Tmax (in vivo [4])	half-life (in vivo [5])	Structure (SMILES)
0.6%	20 ng·h/mL	120 nM	6 min	16.2 min	COCc1ncc(COC(=O)NC(C(=O)N[C@@H](Cc2ccccc2)C[C@H](O)[C@H](Cc2ccccc2)NC(=O)OCc2cccnc2)C(C)C)s1 (stereo not given in full)
5.6%	140 ng·h/mL	200 nM	15 min	34.2 min	CC(C)c1cccc(COC(=O)NC(C(=O)N[C@@H](Cc2ccccc2)C[C@H](O)[C@H](Cc2ccccc2)NC(=O)OCc2cccnc2)C(C)C)n1 (stereo not given in full)
9.3%	500 ng·h/mL	1020 nM	24 min	64.2 min	CC(C)C(NC(=O)N(C)Cc1ccccn1)C(=O)N[C@@H](Cc1ccccc1)[C@@H](O)C[C@H](Cc1ccccc1)NC(=O)OCc1ccoc1 (stereo not given in full)
8.5%	570 ng·h/mL	2530 nM	9 min	39.6 min	CC(C)C(NC(=O)OCc1nccs1)C(=O)N[C@@H](Cc1ccccc1)C[C@H](O)[C@H](Cc1ccccc1)NC(=O)OCc1cccnc1 (stereo not given in full)
23%	2650 ng·h/mL	1590 nM	34.8 min	33.6 min	CC(C)c1nc(CN(C)C(=O)NC(C(=O)N[C@@H](Cc2ccccc2)C[C@H](O)[C@H](Cc2ccccc2)NC(=O)OCc2cnco2)C(C)C)cs1 (stereo not given in full)
22%	1220 ng·h/mL	2180 nM	9 min	73.2 min	CC(C)C(NC(=O)N(C)Cc1ccccn1)C(=O)N[C@@H](Cc1ccccc1)C[C@H](O)[C@H](Cc1ccccc1)NC(=O)OCc1cccnc1 (stereo not given in full)
28%	2370 ng·h/mL	2080 nM	42 min	27.6 min	Cc1ncc(COC(=O)N[C@@H](Cc2ccccc2)C[C@H](O)[C@H](Cc2ccccc2)NC(=O)C(NC(=O)N(C)Cc2csc(C(C)C)n2)C(C)C)s1 (stereo not given in full)
8%	490 ng·h/mL	1350 nM	12 min	23.4 min	COCc1nc(CN(C)C(=O)NC(C(=O)N[C@@H](Cc2ccccc2)C[C@H](O)[C@H](Cc2ccccc2)NC(=O)OCc2cccnc2)C(C)C)cs1 (stereo not given in full)
6%	190 ng·h/mL	860 nM	18 min	12.6 min	Cc1cnc(COC(=O)NC(C(=O)N[C@@H](Cc2ccccc2)C[C@H](O)[C@H](Cc2ccccc2)NC(=O)OCc2cccnc2)C(C)C)cn1 (stereo not given in full)
16%	900 ng·h/mL	1740 nM	6 min	117 min	Cc1cccc(COC(=O)NC(C(=O)N[C@@H](Cc2ccccc2)C[C@H](O)[C@H](Cc2ccccc2)NC(=O)OCc2cccnc2)C(C)C)n1 (stereo not given in full)
18%	1100 ng·h/mL	2130 nM	15 min	13.2 min	CC(C)c1nc(CN(C)C(=O)NC(C(=O)N[C@@H](Cc2ccccc2)C[C@H](O)[C@H](Cc2ccccc2)NC(=O)OCc2cccnc2)C(C)C)co1 (stereo not given in full)
17%	820 ng·h/mL	2170 nM	9 min	36 min	COc1ccc(CN(C)C(=O)NC(C(=O)N[C@@H](Cc2ccccc2)[C@@H](O)C[C@H](Cc2ccccc2)NC(=O)OCc2cccnc2)C(C)C)nc1 (stereo not given in full)
17%	550 ng·h/mL	1520 nM	9 min	18 min	Cc1ncc(CN(C)C(=O)NC(C(=O)N[C@@H](Cc2ccccc2)[C@@H](O)C[C@H](Cc2ccccc2)NC(=O)OCc2cccnc2)C(C)C)nc1C (stereo not given in full)
3.4%	170 ng·h/mL	380 nM	6 min	16.8 min	CC(C)c1nc(CCC(=O)NC(C(=O)N[C@@H](Cc2ccccc2)C[C@H](O)[C@H](Cc2ccccc2)NC(=O)OCc2cccnc2)C(C)C)cs1 (stereo not given in full)
26%	1060 ng·h/mL	2100 nM	9 min	43.2 min	Cc1nc(CN(C)C(=O)NC(C(=O)N[C@@H](Cc2ccccc2)C[C@H](O)[C@H](Cc2ccccc2)NC(=O)OCc2cccnc2)C(C)C)cs1 (stereo not given in full)
5.1%	220 ng·h/mL	910 nM	18 min	52.2 min	CC(C)C(NC(=O)N(C)Cc1ccccn1)C(=O)N[C@@H](Cc1ccccc1)C[C@H](O)[C@H](Cc1ccccc1)NC(=O)OCc1cncnc1 (stereo not given in full)
2.1%	60 ng·h/mL	310 nM	12 min	21 min	Cc1ccc(CN(C)C(=O)NC(C(=O)N[C@@H](Cc2ccccc2)C[C@H](O)[C@H](Cc2ccccc2)NC(=O)OCc2cccnc2)C(C)C)cn1 (stereo not given in full)
0.5%	20 ng·h/mL	200 nM	6 min	43.2 min	CC(C)C(NC(=O)OCc1cncc(N)c1)C(=O)N[C@@H](Cc1ccccc1)[C@@H](O)C[C@H](Cc1ccccc1)NC(=O)OCc1cccnc1 (stereo not given in full)
